Experimental data published in patent US11168077B2, “Molecular rotor-based D-amino acids as tools for imaging peptidoglycan biosynthesis” (Indiana University Research and Technology Corporation, priority 2018, dated 2021).

Legend:
[1] = UV-Vis spectra and calibration curve of FMR-DAAs (excitation/emission maxima, absorptivity); format: physicochemical; design: Absorptivity (ε): unit not given here; details: for Max. λEm / Max. λEx: PBS (pH 7.4) containing 50% glycerol, scan range 350 to 800 nm; for Absorptivity (ε): PBS (pH 7.4), Beer's Law
Experimental: The excitation and emission wavelengths of FMR-DAAs were measured by SpectraMax M2 plate reader using disposable cuvette (polymethyl methacrylate). UV-Vis spectra of FMR-DAAs were measured by scanning within a range from 350 to 800 nm with an increment of 1 nm. The wavelength at maximum absorbance (Ex) and emission (Em) of FMR-DAAs were recorded.
For plotting calibration curves, FMR-DAAs (100 mM stock solution, DMSO) were diluted into 1×PBS (pH 7.4) and the corresponding A. absorbance of FMR-DAAs was measured as a function of concentration (0.1, 0.05, 0.025 and 0.0125 mM). The absorptivity was calculated as described by Beer's Law. The spectra of molecular rotor designs are illustrated in FIG. 7 (panels (i)-(vi)).

[2] = Measurement of viscosity sensitivity of FMR-DAAs in PBS-glycerol; format: physicochemical; details: free probe 0.1 mM in 1×PBS containing 0-80% glycerol, pH 7.4
Experimental: For free FMR-DAAs measurement, FMR-DAAs (100 mM stock solution, DMSO) was diluted in PBS-glycerol solution (1×PBS containing 0%, 20%, 40%, 50%, 60% and 80% glycerol, pH 7.4) to a final concentration of 0.1 mM. The solutions were transferred into 96-well micro-plate and the fluorescence was measure at corresponding Em wavelength mentioned above using SpectraMax M2 plate reader (corresponding Ex wavelength was used). The viscosity sensitivity was calculated using the following equation, where r is viscosity of the solvents, I is the emission intensity of the FMR-DAAs, C is a constant depending on the temperature, and x is the viscosity sensitivity (Zhou el, EJOC, 2011, 4773). The Ig, 50%/Iw value represents the ratio of fluorescent intensity of the 50% glycerol sample to that of the 0% glycerol sample.

[3] = Measurement of thermal stability of FMR-DAAs; format: physicochemical; details: PBS (pH 7.4), 24-hours incubation at 60° C.
Experimental: FMR-DAAs (100 mM stock solution, DMSO) was diluted with 1×PBS (pH7.4) to a final concentration of 0.05 mM. The FMR-DAAs solution was then incubated at 60° C. and kept from light exposure. […]

S. aureus PBP4 [4] = molecular target: T1, S. aureus PBP4 (Staphylococcus aureus, UniProt P72355); test: In vitro real-time D,D-transpeptidation assay using Rf470 and diacetyl-L-lysine-D-alanine-D-alanine substrate; format: biochemical; details: for Effect on initial rate of fluorescence increase (PBP4 enzyme reaction): antibiotics 0.1 equiv. to the substrate; for Effect of added antibiotic on D,D-transpeptidation activity (fluorescence signal increase): antibiotic added to Rf470/substrate/PBP4 reaction
T1 sequence (P72355 25-431): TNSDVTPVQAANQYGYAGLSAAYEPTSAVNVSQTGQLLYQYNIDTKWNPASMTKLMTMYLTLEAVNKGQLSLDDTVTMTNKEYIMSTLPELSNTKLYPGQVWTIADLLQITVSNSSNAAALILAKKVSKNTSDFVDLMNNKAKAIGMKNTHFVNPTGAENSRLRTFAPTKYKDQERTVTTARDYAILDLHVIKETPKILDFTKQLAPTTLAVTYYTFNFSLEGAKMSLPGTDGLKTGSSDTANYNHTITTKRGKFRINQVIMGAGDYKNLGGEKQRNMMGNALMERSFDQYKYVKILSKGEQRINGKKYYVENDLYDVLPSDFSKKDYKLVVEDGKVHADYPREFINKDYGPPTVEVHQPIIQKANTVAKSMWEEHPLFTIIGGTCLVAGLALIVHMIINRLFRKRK
Description: FIG. 12A depicts an exemplary scheme for the assay procedure for in vitro D,D-transpeptidation assays using Rf470 and isolated S. aureus PBP4.
FIG. 12E depicts screening of antibiotic effect on S. aureus PBP4 activity. Kanamycin and Chloramphenicol: ribosome activity inhibitors; Piperacillin, Ampicillin, Penicillin G, Carbenicillin and Cefoxitin are β-lactam antibiotics. A 1:10 ratio of antibiotics to the substrate was used.
We took advantage of the fact that FMR-DAAs are fluorogenic probes that fluoresce upon PG incorporation to develop a continuous, spectrophotometric assay to monitor the formation of transpeptidation product without the need of quenching and purification. The components of the assay included FMR-DAA probes as the fluorescence reporter, synthetic diacetyl-L-lysine-D-alanine-D-alanine as the substrate (acyl donor) and Staphylococcus aureus PBP4 enzyme. S. aureus PBP4 is known to have D,D-transpeptidation activity responsible for the highly cross-linked PG layer in staphylococci, as well as β-lactamase activity to degrade penicillin-like antibiotics.
Rf470, the synthetic substrate and S. aureus PBP4 were incubated in a 96-well plate and the emission fluorescence was measured overtime using a plate reader (5-minute interval, 1 hour in total, FIG. 12A). […] The formation of cross-linked product was confirmed by reverse-phase HPLC and high-resolution mass spectrometry (FIG. 12C, D).
(§1) We further evaluated the utility of this assay for in vitro high-throughput screening for antibiotics. We tested various antibiotics (0.1 equiv. to the substrate) and measured the initial rate of fluorescence increase (FIG. 12E). […] To further confirm the inhibitory effect of these β-lactams toward S. aureus PBP4, we performed a Nitrocefin assay, which tests PBP's β-lactamase activity, in the presence of the antibiotics. […] We also note that this assay can be conducted in an end-point manner, providing an efficient way to test a large number of samples since only a single measurement is required per sample. End-point assays potentially enable high-throughput applications for drug screening and transpeptidation reaction studies.

S. aureus PBP4 [5] = molecular target: T1, S. aureus PBP4; test: Nitrocefin assay of PBP4 β-lactamase activity in the presence of antibiotics; format: biochemical; details: in the presence of the antibiotic
Description: FIG. 12F depicts β-lactamase activity of S. aureus PBP4 in the presence of antibiotics. Nitrocefin degradation by PBP4 results in an increase of absorbance at 500 nm, which is used to measure β-lactamase activity. Low activity stands for a strong inhibition effect of the antibiotics toward PBP4, and vice versa. Values are normalized to the “no antibiotic” sample.
as §1

[6] = Quantum yield measurement (fluorescein standard); format: physicochemical; details: PBS (pH 7.4) containing 50% glycerol; fluorescein as standard
bacterial PG = test: Wash-free labeling of bacterial PG with FMR-probe-D-Lys conjugates, fluorescence microscopy; format: cell-based
Description: FIG. 3E depicts exemplary labeling of bacterial PG with HADA probe (panel (i)) and FMR-probe-D-Lys conjugates having the FMR probe moiety of formula (I), wherein R^1 consists of a —CN moiety (denoted as “Rot1DL” (panel (ii))) without washing prior to fluorescence. Compared to conventional FDAAs (e.g., HADA), FMR-DAAs eliminate the need to wash excess probe.
The presence of the carboxylic acid provides a site for covalent coupling of the FMR-probe to an available amino group on a D-amino acid backbone, such as D-amino-Ala or D-Lys. As FMR-probes having R^1 consist of a cyano moiety provide slight affinity for bacterial membranes, result in low levels of nonspecific labeling and some instability of the α,β-unsaturated malononitrile moiety under typical experimental conditions, such FMR-probes are less preferred for use. In such cases, FMR-probes having R^1 consisting of a carboxylic acid can prevent non-specific membrane binding and increase stability of the probe.

[7] = molecular target: S. aureus Sortase A (SrtA) (Staphylococcus aureus, UniProt Q2FV99); test: In vitro FMR-DAA assay with Sortase A and synthetic pentapeptide motif (LPETG); format: biochemical
Description: (§2) In addition to PBPs, we tested the in vitro assay in other classes of transpeptidases: L,D-transpeptidase (Ldts) and Sortases. It is known that LdtA, encoded by V. cholerae vc1268, is responsible for 3′-3′ cross-linkage formation. […] On the other hand, S. aureus Sortase A (SrtA) is responsible for anchoring surface proteins to PG through a sequence-specific transpeptidation reaction. It recognizes a conserved protein LPXTG motif, and cross-links it with PG pentaglycine in S. aureus. […] Control experiments in the absence of the substrate led to no signal change.

[8] = tested on: LdtA, encoded by V. cholerae vc1268; test: In vitro FMR-DAA assay with L,D-transpeptidase and synthetic tetrapeptide (diacyl-L-Ala-D-Glu-L-Lys-D-Ala); format: biochemical; details: Rf470 + LdtA + synthetic tetrapeptide
Description: as §2

Max. λEm [1]	Max. λEx [1]	Absorptivity (ε) [1]	Viscosity sensitivity (χ) [2]	Thermo-stability (signal retention of absorbance vs initial value) [3]	SMILES	Effect on initial rate of fluorescence increase (PBP4 enzyme reaction) (S. aureus PBP4 [4])	other results
450	400	109538	0.025 ± 0.003	80.0 ± 1.1%	NC(CNC(=O)c1cc2ccc(O)cc2oc1=O)C(=O)O (centres unmarked) [HADA, reference compound]	–	–
–	–	–	–	–	CCN1CCN(C(=O)N[C@@H](C(=O)N[C@@H]2C(=O)N3[C@@H]2SC(C)(C)[C@@H]3C(=O)O)c2ccccc2)C(=O)C1=O [Piperacillin]	did not have a significant effect	Inhibition of PBP4 β-lactamase activity (in words) (S. aureus PBP4 [5]): did not inhibit PBP4s β-lactamase activity effectively
490	420	19761	0.683 ± 0.013	99.8 ± 1.2%	N#C/C(=C\c1ccc2c(c1)CCCN2CCC(=O)NCCCC[C@@H](N)C(=O)O)C(=O)O [Rf420, (E)-N6-(3-(6-(2-carboxy-2-cyanovinyl)-3,4-dihydroquinolin-1(2H)-yl)propanoyl)-D-lysine]	–	Quantum Yield (ϕ) [6]: 0.012
660	490	25409	0.67 ± 0.003	96.9 ± 9.8%	N#CC(=Cc1ccc(-c2ccc3c(c2)CCCN3CCC(=O)O)s1)C(=O)NCCCCC(N)C(=O)O (stereo in doubt) [Rf490, (E)-N^6-(3-(5-(1-(2-carboxyethyl)-1,2,3,4-tetrahydroquinolin-6-yl)thiophen-2-yl)-2-cyanoacryloyl)-L-lysine]	–	Quantum Yield (ϕ) [6]: 0.035; Red-shift in Max. λEX compared to Rf470 [1]: 20 nm
–	–	–	–	–	CC1(C)S[C@@H]2[C@H](NC(=O)C(C(=O)O)c3ccccc3)C(=O)N2[C@H]1C(=O)O (some centres unmarked) [Carbenicillin]	inhibited the enzyme reaction almost completely	–
–	–	–	–	–	CC1(C)S[C@@H]2[C@H](NC(=O)Cc3ccccc3)C(=O)N2[C@H]1C(=O)O [Penicillin G]	partial inhibition	–
–	–	–	–	–	CC1(C)S[C@@H]2[C@H](NC(=O)[C@H](N)c3ccccc3)C(=O)N2[C@H]1C(=O)O [Ampicillin]	partial inhibition	Inhibition of PBP4 β-lactamase activity (in words) (S. aureus PBP4 [5]): did not inhibit PBP4s β-lactamase activity effectively
–	–	–	–	–	CO[C@@]1(NC(=O)Cc2cccs2)C(=O)N2C(C(=O)O)=C(COC(N)=O)CS[C@@H]21 [Cefoxitin]	inhibited the enzyme reaction almost completely	Effect of added antibiotic on D,D-transpeptidation activity (fluorescence signal increase) (S. aureus PBP4 [4]): total inhibition
–	–	–	–	–	N#CC(C#N)=Cc1ccc2c(c1)CCCN2CCC(=O)NCCCC[C@@H](N)C(=O)O [Rotor No. 1, N6-(3-(6-(2,2-dicyanovinyl)-3,4-dihydroquinolin-1(2H)-yl)propanoyl)-D-lysine]	–	Non-specific affinity to other cellular structures / membranes (bacterial PG; FIG. 3G, no washing): low non-specific affinity to other cellular structures; Incorporation into PG sacculi (bacterial PG; labeled bacterial PG, FIG. 3F): covalently incorporated into PG sacculi
–	–	–	–	–	O=C(N[C@H](CO)[C@H](O)c1ccc([N+](=O)[O-])cc1)C(Cl)Cl [Chloramphenicol]	–	Effect of added antibiotic on D,D-transpeptidation activity (fluorescence signal increase) (S. aureus PBP4 [4]): comparable to the non-treated sample

SMILES	Max. λEm [1]	Max. λEx [1]	Absorptivity (ε) [1]	Viscosity sensitivity (χ) [2]	Thermo-stability (signal retention of absorbance vs initial value) [3]	Effect on initial rate of fluorescence increase (PBP4 enzyme reaction) (S. aureus PBP4 [4])	other results
N#C/C(=C\c1ccc(-c2ccc3c(c2)CCCN3CCC(=O)NCCCC[C@@H](N)C(=O)O)s1)C(=O)O [Rf470, (E)-N6-(3-(6-(5-(2-carboxy-2-cyanovinyl)thiophen-2-yl)-3,4-dihydroquinolin-1(2H)-yl)propanoyl)-D-lysine]	640	470	33106	0.642 ± 0.022	99.4 ± 1.4%	–	Quantum Yield (ϕ) [6]: 0.042; Probe fluorescence intensity over time (D,D-transpeptidation signal) (S. aureus PBP4 [4]; probe + synthetic substrate + S. aureus PBP4, 96-well plate, 5-minute interval, 1 hour): increase in fluorescence intensity overtime; Rf470 signal over time with Sortase A [7]: increase of Rf470 signal over time; Fluorescence signal over time with LdtA [8]: time-lapse increase of fluorescence signal
